The source of these data is PubChem BioAssay (NCI).

Among the test systems are CAKI-1 renal; CCRF-CEM leukemia; HCT-15 colon; HOP-62 NSCLC; HOP-92 NSCLC; K-562 leukemia; OVCAR-4 ovarian; SK-MEL-2 melanoma; SN12C renal; U251 CNS.
Common to all, as to test: NCI-60 cell line screen, 48 h

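These data come from cells grown in 96-well plates and exposed to compound for 48 hours at five concentrations. Abbreviation: GI50, concentration required for 50% inhibition of growth. TGI denotes the concentration required for complete inhibition of growth.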 Some results are limits rather than exact numbers.

Regarding `CCN(CC)Cc1cc(Nc2nc(NC3CCC(N(C)C)CC3)c3ccccc3n2)ccc1OC` (stereo not given), the GI50 in the experiment on CAKI-1 renal is 30.9 µM; in the experiment on CCRF-CEM leukemia, 2.5 µM; with HCT-15 colon it was 15.2 µM; in the experiment on HOP-62 NSCLC, 8.63 µM; with HOP-92 NSCLC, 1.63 µM; in the experiment on K-562 leukemia, 1.98 µM. Besides, the GI50 in the experiment on OVCAR-4 ovarian is 4.24 µM; in the experiment on SK-MEL-2 melanoma, 3.09 µM; in the experiment with SN12C renal it was 11.3 µM; in the experiment with U251 CNS, 3.61 µM. For the same compound, the TGI in the experiment with CAKI-1 renal was above 100 µM; in the experiment on CCRF-CEM leukemia, 16.8 µM; in the experiment with HCT-15 colon, 35.3 µM; with HOP-62 NSCLC, 20.9 µM; in the experiment on HOP-92 NSCLC it was 6.71 µM; with K-562 leukemia, 5.23 µM. The TGI in the experiment on OVCAR-4 ovarian stood at 18.3 µM; in the experiment with SK-MEL-2 melanoma, 7.52 µM; in the experiment with SN12C renal, 24.5 µM; in the experiment on U251 CNS, 14.5 µM.

Regarding `COc1ccc2c(c1)c(-c1nc(-c3c[nH]c4ncccc34)cs1)cn2CCCN1CCOCC1`, the GI50 is 1.88 µM in the experiment on CAKI-1 renal; 2.76 µM in the experiment on CCRF-CEM leukemia; 2.32 µM in the experiment on HCT-15 colon; 2.24 µM in the experiment with HOP-62 NSCLC; 2.42 µM with HOP-92 NSCLC; 2.08 µM with K-562 leukemia. For the same compound, the GI50 was 2.14 µM in the experiment with OVCAR-4 ovarian, 1.88 µM with SK-MEL-2 melanoma, 3.16 µM in the experiment with SN12C renal and 2.25 µM in the experiment with U251 CNS. Moreover, the TGI with CAKI-1 renal was found to be 4.67 µM; in the experiment with CCRF-CEM leukemia, 8.09 µM; in the experiment with HCT-15 colon it was 7.7 µM; in the experiment on HOP-62 NSCLC, 7.18 µM; with HOP-92 NSCLC it was 6.82 µM; in the experiment with K-562 leukemia, 4.95 µM. For the same compound, the TGI came to 8.27 µM in the experiment with OVCAR-4 ovarian, 3.77 µM in the experiment on SK-MEL-2 melanoma, 15.6 µM in the experiment on SN12C renal and 5.09 µM with U251 CNS.

Turning to `Cc1ccc(S(=O)(=O)OCC/C(=C\[Si](C)(C)C)c2ccccc2)cc1`, the TGI with CAKI-1 renal, in the experiment on CCRF-CEM leukemia, with HCT-15 colon, in the experiment with HOP-62 NSCLC, with HOP-92 NSCLC and in the experiment with K-562 leukemia was above 100 µM throughout. Moreover, the TGI in the experiment on OVCAR-4 ovarian, in the experiment with SK-MEL-2 melanoma, with SN12C renal and in the experiment with U251 CNS was above 100 µM throughout.

Regarding `Cn1c([N+](=O)[O-])cnc1C=C1C(=O)c2ccccc2C1=O`, the GI50 was 3.56 µM in the experiment on CAKI-1 renal; 1.85 µM in the experiment with CCRF-CEM leukemia; 2.13 µM in the experiment on HCT-15 colon; 10.7 µM in the experiment with HOP-62 NSCLC; 1.65 µM in the experiment with HOP-92 NSCLC; 3.34 µM with K-562 leukemia. The GI50 is 6.36 µM in the experiment with OVCAR-4 ovarian, 2.46 µM in the experiment on SK-MEL-2 melanoma, 3.83 µM with SN12C renal and 5.8 µM in the experiment with U251 CNS. Further, the TGI with CAKI-1 renal was 14.2 µM; with CCRF-CEM leukemia it was 6.53 µM; with HCT-15 colon, 6.77 µM; in the experiment on HOP-62 NSCLC it was 29.5 µM; in the experiment on HOP-92 NSCLC, 6.1 µM; in the experiment on K-562 leukemia, 16.3 µM. The TGI with OVCAR-4 ovarian was found to be 55.4 µM; with SK-MEL-2 melanoma it was 6.24 µM; in the experiment on SN12C renal it was 16.1 µM; with U251 CNS it was 20.7 µM.

In the case of `O=C1Oc2ccccc2C(=O)/C1=C1/C=C(c2ccccc2)SS1`, the TGI in the experiment on CAKI-1 renal is above 100 µM; in the experiment with CCRF-CEM leukemia, 49.6 µM; in the experiment on HCT-15 colon, above 100 µM; in the experiment on HOP-62 NSCLC, above 100 µM; in the experiment on HOP-92 NSCLC it was above 100 µM; in the experiment on K-562 leukemia it was above 100 µM. Also, the TGI in the experiment on OVCAR-4 ovarian, with SK-MEL-2 melanoma, in the experiment with SN12C renal and in the experiment with U251 CNS was above 100 µM in each case.

On to `Cc1ccc2c(-c3ccnc(Nc4ccc5c(c4)OCCO5)n3)c(-c3ccc(C(F)(F)F)cc3)nn2n1`, for which the GI50 with CAKI-1 renal is 1.42 µM; in the experiment with CCRF-CEM leukemia, 11.7 µM; with HCT-15 colon it was 8.69 µM; with HOP-62 NSCLC, 24.8 µM; in the experiment with HOP-92 NSCLC, 1.4 µM; in the experiment with K-562 leukemia it was 20.3 µM. The GI50 in the experiment with OVCAR-4 ovarian is 8.59 µM; in the experiment on SK-MEL-2 melanoma, 8.42 µM; in the experiment on SN12C renal it was 5.26 µM; in the experiment on U251 CNS it was 20.8 µM. The TGI in the experiment with CAKI-1 renal is above 25 µM; in the experiment with CCRF-CEM leukemia, above 25 µM; in the experiment with HCT-15 colon, above 25 µM; in the experiment with HOP-62 NSCLC, above 25 µM; with HOP-92 NSCLC, 19.2 µM; in the experiment with K-562 leukemia, above 25 µM. Further, the TGI with OVCAR-4 ovarian, in the experiment on SK-MEL-2 melanoma, with SN12C renal and in the experiment on U251 CNS was above 25 µM each time.

As for `O=C1NC(=O)c2c1n(Cc1ccccc1)c(=O)n2Cc1ccccc1`, the TGI in the experiment with CAKI-1 renal, in the experiment on CCRF-CEM leukemia, in the experiment with HCT-15 colon, in the experiment on HOP-62 NSCLC, in the experiment with HOP-92 NSCLC and with K-562 leukemia was above 100 µM each time. In addition, the TGI in the experiment with OVCAR-4 ovarian, in the experiment with SK-MEL-2 melanoma, in the experiment on SN12C renal and in the experiment with U251 CNS was above 100 µM each time.

`CCOC(=O)c1nc(C)oc1C(F)(F)F`: the TGI in the experiment on CAKI-1 renal, with CCRF-CEM leukemia, in the experiment on HCT-15 colon, in the experiment on HOP-62 NSCLC, in the experiment on HOP-92 NSCLC and in the experiment on K-562 leukemia was above 100 µM each time. Besides, the TGI in the experiment with OVCAR-4 ovarian, in the experiment on SK-MEL-2 melanoma, in the experiment with SN12C renal and in the experiment on U251 CNS was above 100 µM each time.

As to `N#CC1(c2ccc(NC(=O)c3cccnc3NCc3ccncc3)cc2)CCCC1`, the GI50 in the experiment with CAKI-1 renal is 16.8 µM; with CCRF-CEM leukemia, 12.9 µM; with HCT-15 colon, 8.12 µM; in the experiment on HOP-62 NSCLC, 22.4 µM; with HOP-92 NSCLC, 19.3 µM; in the experiment on K-562 leukemia, 5.79 µM. For the same compound, the GI50 is 13.2 µM in the experiment with OVCAR-4 ovarian, 11.9 µM in the experiment with SK-MEL-2 melanoma, 18 µM with SN12C renal and 12 µM in the experiment with U251 CNS. Also, the TGI is above 85.9 µM in the experiment on CAKI-1 renal; above 95 µM in the experiment on CCRF-CEM leukemia; 39.3 µM with HCT-15 colon; 84.9 µM with HOP-62 NSCLC; above 100 µM with HOP-92 NSCLC; above 51 µM in the experiment on K-562 leukemia. The TGI with OVCAR-4 ovarian is 98.5 µM; in the experiment with SK-MEL-2 melanoma, 32 µM; in the experiment on SN12C renal, above 100 µM; with U251 CNS, 25.8 µM.
